Patent US20160038454A1, “INTRAVENOUS FORMULATIONS OF […] AS IMMUNOMODULATORS AND […] AGENTS” (priority 2013, published 2016)
pIC50: −log10 of the molar value. Like-named read-outs stand apart in the source and are kept apart here.

What was measured:
patients with AML = conditions: given intravenously; Xia Zhi Lin and Zhen You Lan 2008; cited from earlier work
[1] = test system: IL-2 production by Jurkat cells; assay: cells; assay type: cell-based, human; conditions: for pIC50: read-out: Immunosuppression IL-2 (IC50)
Procedure: Test samples can be diluted to 1 mM in complete tissue culture medium. Aliquots are placed in microculture plates coated with anti-CD3 antibody (used to stimulate the production of IL-2 by Jurkat cells), and serial dilutions are prepared so that the final concentration encompass the range of 0.001 to 10,000 nM in log increments. Cells from an exponentially expanding culture of Jurkat human T cell line (#TIB-152 obtained from American Type Culture Collection, Manassas, Va.) are harvested, washed once by centrifugation, re-suspended in complete tissue culture medium, and diluted to a concentration of 2×10^6 cells/ml. A volume of 50 μl of Jurkat cells (1×10^5 cells) is added to wells containing 100 μl of the diluted compounds, 50 μl of PMA (10 ng/ml) is added to each well, and the plates are incubated at 37° C. in a 5% CO2 incubator. After 24 hours, the plates are centrifuged to pellet the cells, 150 μl of supernatant is removed from each well, and the samples are stored at −20° C. The stored supernatants are analyzed for human IL-2 concentration using the Luminex 100 (Luminex Corporation, Austin, Tex.), Luminex microspheres coupled with anti-IL-2 capture antibody, and fluorochrome-coupled anti-IL-2 detection antibody. The data are expressed as pg/ml of IL-2.

[2] = test system: human T cell lymphoma (Jurkat) cells; assay: in vitro; assay type: cell-based
Procedure: (§1) Test compounds may be dissolved in DMSO at a concentration of 20 mM. Further dilutions may be done in RPMI1640 medium (GIBCO, Rockville, Md.) supplemented with 10% Fetal Calf Serum (HyClone Laboratories, Logan, Utah).
(§2) Cytotoxicity of the compounds is determined in a standard MTT assay using Cell Proliferation Kit I (#1 465 007, Roche Diagnostics, Mannheim, Germany). Briefly, human T cell lymphoma (Jurkat) cells (4×10^5 per well) are cultured for 24 h, in 96-well tissue culture plates, in the presence of serial three-fold dilutions of test compounds or medium containing the same concentration of DMSO as in the test samples at each dilution point. The cultures are then supplemented with 10 μl/well MTT reagent for 4 h and then with 0.1 ml/well solubilizing reagent for an additional 16 h. Optical density at 570 nm (OD570) is measured on a ThermoScan microplate reader (Molecular Devices, Menlo Park, Calif.).

[3] = test system: primary mesencephalic neuron/glia mixed culture; conditions: Li et al., 2004; cited from earlier work
[4] = TK: plasma triptolide levels, Calvert study (emulsion); assay type: in vivo, rodents; conditions: for Plasma Triptolide Concentration: 0.15 mg/kg (emulsion)
Procedure: Triptolide prodrugs are generally believed to be safer than triptolide. […] Triptolide prodrugs as an emulsion formulation are believed to have a toxicokinetic profile characterized by a flat AUC with a minimized Cmax. [In conjunction, it was postulated that a sustained inhibition of RNA polymerase is needed for optimum efficacy which in turn requires a pharmcokinetic profile of constant exposure to drug]. […] The no effect dose (“NOAEL”) of PG796(MRx102) again exceeded 1.5 mg/kg/day intravenously for seven days in rodents confirming the initial results. It is interesting to ask why a prodrug of triptolide would be safer than the natural product itself; while not wishing to be bound by theory, perhaps the answer lies in the pharmacokinetic profile of triptolide administered either directly or released from its carrier, PG796(MRx102). […] It also remained above the therapeutic levels (shown as a thick line without symbols). The difference in the Cmax/AUC profile of PG796(MRx102) vs. triptolide is believed to be due to the physiochemical properties of the lipid prodrug/emulsion formulation combination. In general, triptolide prodrugs having a cLogP greater than 0.5 are more lipid-soluble than water soluble and are expected to take longer to convert to the drug form; such characteristics may yield a flatter conversion profile and less of a drug-release Cmax spike.
TK comparison of triptolide levels in Calvert and SRI studies—Males and Females

PC12 cells = conditions: cited from earlier work
[5] = molecular target: T1, human XPB (also known as ERCC3) (Homo sapiens, UniProt P19447); conditions: Titov et al. 2011; cited from earlier work
T1 sequence (P19447 1-782): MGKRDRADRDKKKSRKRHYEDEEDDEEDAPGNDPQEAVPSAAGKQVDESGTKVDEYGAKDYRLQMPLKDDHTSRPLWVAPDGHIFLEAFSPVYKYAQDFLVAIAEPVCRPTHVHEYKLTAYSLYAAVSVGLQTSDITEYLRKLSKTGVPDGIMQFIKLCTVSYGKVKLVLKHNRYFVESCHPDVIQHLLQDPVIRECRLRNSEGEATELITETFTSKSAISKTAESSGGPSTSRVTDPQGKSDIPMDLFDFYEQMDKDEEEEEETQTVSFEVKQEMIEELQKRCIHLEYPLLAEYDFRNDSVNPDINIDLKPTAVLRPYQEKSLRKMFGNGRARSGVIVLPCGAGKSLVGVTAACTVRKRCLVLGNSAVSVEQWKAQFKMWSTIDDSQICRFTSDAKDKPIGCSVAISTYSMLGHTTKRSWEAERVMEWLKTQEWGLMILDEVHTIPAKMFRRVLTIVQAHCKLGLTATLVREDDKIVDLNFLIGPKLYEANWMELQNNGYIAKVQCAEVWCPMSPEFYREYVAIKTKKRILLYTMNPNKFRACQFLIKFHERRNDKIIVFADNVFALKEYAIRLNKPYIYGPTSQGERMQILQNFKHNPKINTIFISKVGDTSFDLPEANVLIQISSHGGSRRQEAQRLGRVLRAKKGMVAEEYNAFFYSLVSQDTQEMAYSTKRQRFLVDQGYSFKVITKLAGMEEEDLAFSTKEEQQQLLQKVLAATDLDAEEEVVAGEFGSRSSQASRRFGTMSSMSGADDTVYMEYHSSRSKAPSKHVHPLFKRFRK

[6] = test system: lipopolysaccharide (LPS)-activated microglial activity; conditions: Zhou et al., 2003; cited from earlier work
[7] = test system: human T cell lymphoma (Jurkat) cells; conditions: cited from earlier work
[8] = test system: IL-2 production by Jurkat cells; conditions: cited from earlier work
[9] = Conversion to triptolide using human serum; assay type: in vitro ADME
Text: (Xia Zhi Lin and Zhen You Lan, Haematologica, 93:14 (2008)).

in vitro = assay type: cell-based, human; conditions: human; Jurkat cells; test compounds incubated in serum for 24 hrs; read-out: Viability/Cytotoxicity MTT (ED50)
Procedure: as §1, §2

bleomycin-induced PF = conditions: G. Krishna et al., 2001; cited from earlier work
rat model of PD = conditions: 0.5-1 μg/kg; Cheng et al., 2002; cited from earlier work
[10] = test system: primary cultured rat mesencephalic neurons; conditions: Li et al., 2003; cited from earlier work
[11] = incubated in human serum compared with mouse serum
[12] = FIG. 1, triptolide provided alone

## triptolide 14-succinate [PG490-88]
Patients with AML
  clinical activity in patients with AML: promising activity
[1]; [11]
  activity in IL-2 inhibition assay after incubation in human serum vs mouse serum: much less active
[2]; [11]
  activity in MTT assay after incubation in human serum vs mouse serum: much less active

## triptolide [PG490]
[1]; Jurkat cells, test compounds incubated in serum for 24 hrs
  pIC50: 8.40
[3]
  LPS-induced decrease in 3H-dopamine uptake and loss of tyrosine hydroxylase-positive neurons: attenuates
[4]; females, 0 hrs
  Plasma Triptolide Concentration: 0 ng/mL
[4]; females, 0.25 hrs
  Plasma Triptolide Concentration: 74.6 ng/mL
[4]; females, 0.5 hrs
  Plasma Triptolide Concentration: 18.4 ng/mL
[4]; females, 1 hrs
  Plasma Triptolide Concentration: 13.2 ng/mL
[4]; females, 2 hrs
  Plasma Triptolide Concentration: 0 ng/mL
[4]; females, 24 hrs
  Plasma Triptolide Concentration: 0 ng/mL
[4]; males, 0 hrs
  Plasma Triptolide Concentration: 0 ng/mL
[4]; males, 0.25 hrs
  Plasma Triptolide Concentration: 59.0 ng/mL
[4]; males, 0.5 hrs
  Plasma Triptolide Concentration: 14.9 ng/mL
[4]; males, 1 hrs
  Plasma Triptolide Concentration: 3.6 ng/mL
[4]; males, 2 hrs
  Plasma Triptolide Concentration: 0 ng/mL
[4]; males, 24 hrs
  Plasma Triptolide Concentration: 0 ng/mL
[4]; [12]
  triptolide Cmax (in words): very high Cmax
  triptolide in circulation by two hours post-dose: none remained in circulation
PC12 cells
  β-amyloid-induced apoptosis: markedly inhibit
[5]
  DNA-dependent ATPase activity of XPB: inhibit
  binding to human XPB: covalently bind
[6]
  LPS-activated microglial activity (nitrite accumulation, TNF-α and IL-1β release): powerful inhibitory influence

## CC(C)[C@]12O[C@H]1[C@@H]1O[C@]13[C@]1(O[C@H]1C[C@H]1C4=C(CC[C@@]13C)C(=O)OC4)[C@H]2F [PG763, 14-deoxy-14α-fluoro triptolide]
[7]
  cytotoxicity in Jurkat cells (as reported in U.S. application 60/449,976): cytotoxicity in human T cell lymphoma (Jurkat) cells
[8]
  inhibition of IL-2 (as reported in U.S. application 60/449,976): inhibition of IL-2

## CC(C)[C@]12O[C@H]1[C@@H]1O[C@]13[C@]1(O[C@H]1C[C@H]1C4=C(CC[C@@]13C)C(=O)OC4)[C@@H]2OC(=O)CCC(=O)[O-].[Na+] [PG490-88Na]
[9]
  conversion to triptolide in human serum: incompletely converted

## CC(C)[C@]12O[C@H]1[C@@H]1O[C@]13[C@@]1(OC(=O)O[C@H]21)[C@H](Cl)C[C@H]1C2=C(CC[C@@]13C)C(=O)OC2 [PG762]
[1]; Homo sapiens, Jurkat, 24 h
  pIC50: 8.05
In vitro
  EC50 at 24 h: 60 nM
[2]; Jurkat cells, comparison with triptolide or PG490-88
  cytotoxic activity in MTT assay (in words): comparable potency

## 14-succinimide ester of triptolide
bleomycin-induced PF
  bleomycin-induced PF: block bleomycin-induced PF

## CC(C)[C@]1(O)[C@H](Cl)[C@@H]2O[C@]23[C@]2(O[C@H]2C[C@H]2C4=C(CC[C@@]23C)C(=O)OC4)[C@@H]1O [Tripchlorolide]
Rat model of PD
  recovery of rats undergoing neurosurgery: improves recovery
[10]
  protection from neurotoxic lesion induced by 1-methyl-4-phenylpyridinium ion: protects dopaminergic neurons
